The source of these data is publication PMC7408547, “Bivalent Inhibitor with Selectivity for Trimeric MMP-9 Amplifies Neutrophil Chemotaxis and Enables Functional Studies on MMP-9 Proteoforms” (Cells, 2020).

Test [1] concerns C57BL/6 mice. Put plainly: Mouse air pouch model of in vivo chemotaxis towards LPS. Conditions: for total amount of white blood cells recruited to the pouches: compound 5 µg with LPS 2 µg, 4 h after injection. The method, then:
Air pouches were established by injecting C57BL/6 mice on dorsal sites with 3 mL filtered air (0.20 μm filter) on days 0 and 3. On day 6, test samples were injected in a total volume of 1 mL and at the indicated amount. After 4 h, mice were euthanized and the exudates of the pouches were collected after injection of 1 mL pyrogen-free PBS containing 20 U/mL heparin and 2% KnockOut™ Serum Replacement (Gibco, Waltham, MA, USA), and followed by 30 sec of gentle massage. This procedure was repeated twice with 2 mL buffer. Next, the pouch fluid was centrifuged (10 min, 500× g) and supernatant and cell pellets were separated for further analysis. Data were collected during three independent experiments with 3–4 mice per group. All procedures were conducted in accordance with protocols approved by the local Ethics Committee (License number P033/2018, Belgium).
For microscopic evaluation of cells derived from air pouches, 75 × 10^3 cells were deposited evenly onto a glass slide by centrifugation using a Shandon Cytospin 2 apparatus (Thermo Shandon, Pittsburgh, PA, USA). Next, the preparations were stained with Hemacolor (Merck Chemicals, Darmstadt, Germany). Cells were divided into 4 categories; neutrophils, monocytes/macrophages, lymphocytes and other cells. For each condition, three times 100 cells were counted and the average was used as a final value.
Approximately 10^6 cells were incubated for 15 min with the Fc-receptor-blocking antibodies anti-CD16/anti-CD32 (BD Biosciences Pharmingen, San Diego, CA, USA) and with a Zombie Aqua™ viability dye (BioLegend, San Diego, CA, USA). […] Cells were analyzed on a BD LSR Fortessa X20 with DIVA software (BD, Franklin Lakes, NJ, USA, v9.0). Results were further analyzed with the FlowJo software (BD, Franklin Lakes, NJ, USA, v10.0). […]

Test [2] has as its system C57BL/6 mice. Put plainly: Mouse endotoxemia model. Conditions: for levels of MMP-9 in plasma and lungs (Western blot): 5 h after LPS/compound administration. It counts as in vivo. The method, then: Endotoxemia was induced in 8-week old C57BL/6 mice by intraperitoneal (i.p.) injection of lipopolysaccharides (LPS) (Escherichia coli 0111:B4, cat. no. 4391, Sigma-Aldrich, St. Louis, MO, USA ) at 10 mg/kg. Control mice were injected with an equal volume of vehicle (pyrogen-free phosphate-buffered saline). A volume of 500 µl compound 5 or 7, diluted in PBS with 2% DMSO (2 mg/mL), was injected i.p. at the same time as the LPS injection (± 50 mg/kg). […] After induction of endotoxemia, progression of the disease was monitored by hourly evaluation of mouse body temperature (rectal probe) and disease scoring by use of the mouse sepsis score (MSS) as described. When the MSS score was above 21, humane endpoints were reached and mice were sacrificed. Blood was collected by cardiac puncture with a heparin-coated needle and syringe, and immediately processed by centrifugation (2000× g for 10 min at 4 °C). The supernatant (plasma) was collected and stored for further analysis. Mice were dissected and organs were stored for further analysis. Bone marrow cells were collected from femora by flushing the medullary cavity with PBS and after centrifugation the cell pellet was immediately processed for downstream analysis. All procedures were conducted in accordance with protocols approved by the local ethics committee (project number P128/2019, KU Leuven, Belgium).
Tissues were homogenized and proteins extracted with a Precellys lysing kit (Bertin Technologies, Rockville, MD, USA). Briefly, tissues were placed in hard tissue homogenizing CK28 tubes (Bertin Technologies, Rockville, MD, USA). Then, 600 µL of RIPA buffer was added to all tubes and homogenization was done using the Precellys®24 (Bertin Technologies, Rockville, MD, USA). To precipitate all tissue debris, the tubes were centrifuged at 20,800× g and 4 °C for 15 min. Supernatant, containing soluble proteins, was collected and used for further analysis. Total protein content of all samples was determined by using a standard Bradford assay (Bio-Rad, Hercules, CA, USA). […] Proteins were transferred to PVDF membranes using the Trans-Blot Turbo Transfer System with associated materials and protocols (Biorad, Hercules, CA, USA). Next, membranes were blocked for 1 h in 5% BSA with TBST buffer (150 mM NaCl, 0.1% Tween 20, 50 mM Tris, pH 7.5). Membranes were incubated overnight with anti-MMP-9 (AF909, R & D systems, Minneapolis, MO, USA) or anti-tubulin (MA5-16308-HRP, Invitrogen, Carlsbad, CA, USA) antibodies. After washing, the blot was incubated with peroxidase-conjugated anti-goat IgG (PI-9500, Vector Labs, Burlingame, CA, USA) or anti-mouse IgG (115-035-071, Jackson ImmunoResearch, PA, USA) for 1 h at room temperature. […]
For orientation: In western blotting, separated proteins are transferred to a membrane and probed.

Setting [3] is: 10 mg/kg LPS i.p. and ± 50 mg/kg compound i.p. simultaneously, hourly.

Each structure is given as a SMILES string. “Also recorded” adds a separate entry of the source.

With `CC(C)[C@H](C(=O)O)N(CCNC(=O)c1cccc(C(=O)NCCN([C@@H](C(=O)O)C(C)C)S(=O)(=O)c2ccc(-c3ccccc3)cc2)c1)S(=O)(=O)c1ccc(-c2ccccc2)cc1` [Compound 7], in the test on C57BL/6 mice [1] (air pouch, 4 h), the “neutrophil migration towards E. coli-derived LPS” value is given as “increases neutrophil migration”. In addition, the “total amount of white blood cells recruited to the pouches” value is given as “significant increase compared to LPS alone” in the test with C57BL/6 mice [1] and “amplified leukocyte influxes” with C57BL/6 mice [1] (listed as bivalent inhibitor). In addition, the “disease score (mouse sepsis score, MSS)” value with C57BL/6 mice [2] (setting [3]) is recorded as “(although not significant) increase in disease score; also recorded: did not alter disease scores compared to compound 5”. The mouse body temperature entry in the test with C57BL/6 mice [2] (setting [3]) is “early and significant drop in mouse body temperature”. Besides, the “levels of MMP-9 in plasma and lungs (Western blot)” value is “further induce the presence of MMP-9; also recorded: increased” with C57BL/6 mice [2]; “significantly increased levels of MMP-9 in plasma and lungs” in the test on C57BL/6 mice [2] (listed as bivalent inhibitor).
